Earlier results on one compound are cited in patent publication US8802735B2, “(Z)-2-cyano-3-hydroxy-but-2-enoic acid-(4'-trifluormethylphenyl)-amide tablet formulations with improved stability” (Sanofi, priority 2009, dated 2014).

Structures are written as SMILES.

The data set addresses dihydroorotate dehydrogenase (Homo sapiens, UniProt Q02127). To be noted: Bruneau J-M, et al., Biochem. J. 1998.

Chain of dihydroorotate dehydrogenase (Q02127 whole entry): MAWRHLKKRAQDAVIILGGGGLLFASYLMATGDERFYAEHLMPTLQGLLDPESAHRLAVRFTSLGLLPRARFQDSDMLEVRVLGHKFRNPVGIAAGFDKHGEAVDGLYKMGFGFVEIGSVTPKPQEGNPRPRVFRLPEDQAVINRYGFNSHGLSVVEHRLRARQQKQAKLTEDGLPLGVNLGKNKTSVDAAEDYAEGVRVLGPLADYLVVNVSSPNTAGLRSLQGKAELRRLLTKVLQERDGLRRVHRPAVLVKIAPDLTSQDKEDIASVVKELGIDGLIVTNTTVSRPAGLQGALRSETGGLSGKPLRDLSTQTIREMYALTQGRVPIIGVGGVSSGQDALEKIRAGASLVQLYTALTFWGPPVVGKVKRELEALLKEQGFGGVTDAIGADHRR

For the compound `C/C(O)=C(\C#N)C(=O)Nc1ccc(C(F)(F)F)cc1` [Teriflunomide, (Z)-2-cyano-3-hydroxy-but-2-enoic acid-(4′-trifluoromethylphenyl)-amide], the “inhibition of the enzyme dihydroorotate dehydrogenase” value was “inhibits”.
